Source: article PMC4744035, “In Vivo, In Vitro, and In Silico Characterization of Peptoids as Antimicrobial Agents” (PLoS ONE, 2016)
In brackets after ≈: the same amount, converted by molar mass. Each block holds one compound with its values, some of them ahead of it. Square brackets hold non-standard residues; d marks the D form. Peptide text beside a SMILES is read from it. Nspe = C[C@H](NCC(=O)O)c1ccccc1; Nlys = NCCCCNCC(=O)O

Columns and labels:
E. coli ATCC 35218 = assay type: cell-based
Experimental: MICs against B. subtilis and E. coli screening bacterial strains were determined using serial dilution in 96-well microtiter plates in accordance with CLSI M7-A6 protocols. Briefly, peptoid solution in cation-adjusted Mueller-Hinton broth was prepared by 2:1 serial dilution with a total volume of 50 µL per well. In experimental wells, 50 µL of bacterial inoculums (1 x 10^6 CFU/mL) were added to the peptoid solutions. Positive controls consisted of 50 µL inoculums added to 50 µL cation-adjusted Mueller-Hinton broth containing no peptoid, while negative controls contained only cation-adjusted Mueller-Hinton broth. […] Experiments were reproducible among three independent replicates, each consisting of two parallel trials.

erythrocytes = assay: Hemolytic activity (HD10/HD50); assay type: cell-based
Source text: Table 1 Characteristics of antimicrobial peptoids, screened for activity against B. subtilis and E. coli bacterial strains. | column: HD10 / HD50

NIH 3T3 cells = assay: Metabolic activity, MTS assay; assay type: cell-based, mouse
Experimental: NIH 3T3 mouse fibroblast cells were cultured in complete Dulbecco’s Modified Eagle’s Media. A peptoid solution plate (100 µL per well) was prepared by serial dilution of aqueous peptoid stock solutions in Hank’s balanced salt solution. A day-old cell monolayer was washed thoroughly with Hank’s balanced salt solution and replenished with 100 µL Hank’s balanced salt solution per well. Peptoid solutions were transferred onto the day-old cell monolayers, which contained approximately 5000 cells per well. […] The average of six replicate trials is reported.

[1] = test system: E. cloacae 218R Class C β-lactamase; assay: microbe, parasite or virus in culture; conditions: 218R Class C β-lactamase
Experimental: (§1) The MICs of test agents were measured using a modified broth micro-dilution method in Difco Mueller Hinton medium, on a panel of bacterial pathogens that were both susceptible and resistant to common antibiotics (S1 File). Briefly, serial dilutions were performed in 0.01% acetic acid containing 0.2% bovine serum albumin at 10-fold the desired final concentration. Ten μL of the 10-fold concentrated test reagents were added to each well of a 96-well polypropylene microtitre plate containing 90 μL of Mueller Hinton media per well. Bacteria were added to the plate from an overnight culture at a final concentration of 2–7 x 10^5 CFU/mL and incubated overnight at 37°C. The MIC is defined as the concentration at which no growth was observed.
(§2) Screening of peptoid antimicrobial activity against a panel of multidrug resistant superbugs was done according to the protocol described in the manuscript. The bacterial strains used in this panel included; P. aeruginosa PAO1 strain H103 [1], P. maltophilia ATCC#13637, S. aureus ATCC#25923 [1], E. faecalis ATCC#29212 [2], and E. cloacae 218R, constitutively expressing Class C chromosomal β-lactamase, were from the Hancock lab strains collection. An MRSA clinical isolate was kindly provided by Anthony Chow (Vancouver General Hospital, Vancouver, Canada). Two Klebsiella pneumoniae and two E. coli clinical isolates expressing extended spectrum β-lactamases (ESBL) were kindly provided by George Zhanel (Health Sciences Centre, Winnipeg, Canada). Vancomycin-resistant clinical isolates of Enterococcus faecalis and E. faecium were obtained from Ana M. Paccagnella (BC Centre for Disease Control, Vancouver, Canada). Three clinical isolates (#9, #198 and #213) of multi-drug resistant P. aeruginosa, were kindly provided by Carlos Kiffer (University of São Paulo, Brazil). […] Three P. aeruginosa clinical isolates of the Liverpool epidemic strain (LES) (H1027, H1030 and LES400) were all kindly provided by Craig Winstanley (University of Liverpool, UK). […] All tested bacterial strains were categorized as biohazard level 2 pathogens.

E. coli 63103 (ESBL) = assay: microbe, parasite or virus in culture; conditions: 63103 (ESBL)
Experimental: as §1, §2

E. coli 64771 (ESBL) = assay: microbe, parasite or virus in culture; conditions: 64771 (ESBL)
Experimental: as §1, §2

E. faecalis ATCC29212 = assay: microbe, parasite or virus in culture; conditions: ATCC29212
Experimental: as §1, §2

E. faecalis F43559 (VRE) = assay: microbe, parasite or virus in culture; conditions: F43559 (VRE)
Experimental: as §1, §2

E. faecalis W61950 (VRE) = assay: microbe, parasite or virus in culture; conditions: W61950 (VRE)
Experimental: as §1, §2

E. faecium T62764 (VRE) = assay: microbe, parasite or virus in culture; conditions: T62764 (VRE)
Experimental: as §1, §2

E. faecium mic80 (VRE) = assay: microbe, parasite or virus in culture; conditions: mic80 (VRE)
Experimental: as §1, §2

[2] = test system: K. pneumonia 61962 (ESBL); assay: microbe, parasite or virus in culture
Experimental: as §1, §2

[3] = test system: K. pneumonia 63575 (ESBL); assay: microbe, parasite or virus in culture
Experimental: as §1, §2

P. aeruginosa 198 (MDR) = assay: microbe, parasite or virus in culture; conditions: 198 (MDR)
Experimental: as §1, §2

P. aeruginosa 213 (MDR) = assay: microbe, parasite or virus in culture; conditions: 213 (MDR)
Experimental: as §1, §2

P. aeruginosa 9 (MDR) = assay: microbe, parasite or virus in culture; conditions: 9 (MDR)
Experimental: as §1, §2

[4] = test system: P. aeruginosa H1027 (MDR); assay: microbe, parasite or virus in culture; conditions: H1027 (MDR)
Experimental: as §1, §2

[5] = test system: P. aeruginosa H103 (wild type); assay: microbe, parasite or virus in culture; conditions: H103 (wild type)
Experimental: as §1, §2

[6] = test system: P. aeruginosa H1030 (MDR); assay: microbe, parasite or virus in culture; conditions: P. aeruginosa H1030 (MDR)
Experimental: as §1, §2

[7] = test system: P. aeruginosa LES400 (MDR); assay: microbe, parasite or virus in culture; conditions: LES400 (MDR)
Experimental: as §1, §2

P. maltophilia ATCC13637 = assay: microbe, parasite or virus in culture; conditions: ATCC13637
Experimental: as §1, §2

S. aureus ATCC25923 = assay: microbe, parasite or virus in culture; conditions: ATCC25923
Experimental: as §1, §2

S. aureus C623 (MRSA) = assay: microbe, parasite or virus in culture; conditions: C623
Experimental: as §1, §2

SMILES: C[C@@H](c1ccccc1)N(CC(N)=O)C(=O)CN(C(=O)CN(CCCCN)C(=O)CN(C(=O)CN(C(=O)CN(CCCCN)C(=O)[C@@H]1CCCN1C(=O)CN(C(=O)CN(CCCCN)C(=O)CN(C(=O)CN(C(=O)CNCCCCN)[C@@H](C)c1ccccc1)[C@@H](C)c1ccccc1)[C@@H](C)c1ccccc1)[C@@H](C)c1ccccc1)[C@@H](C)c1ccccc1)[C@@H](C)c1ccccc1 [Peptoid 1-Pro6, H-NLys-Nspe2-NLys-Nspe-L-Pro-(NLys-Nspe2)2-NH2] (H-[Nlys][Nspe][Nspe][Nlys][Nspe]P[Nlys][Nspe][Nspe][Nlys][Nspe][Nspe]-NH2)
- MIC E. coli (E. coli ATCC 35218): 12.5 µM (≈ 21.9 µg/mL)
- HD10 (hemolytic activity) (erythrocytes): 83
- HD50 (hemolytic activity) (erythrocytes): > 200
- ID50 (inhibitory dose, metabolic activity) (NIH 3T3 cells): 18 µM
- MIC [1]: 16 µg/mL (≈ 9.12 µM)
- MIC (E. coli 63103 (ESBL)): 16 µg/mL (≈ 9.12 µM)
- MIC (E. coli 64771 (ESBL)): 8 µg/mL (≈ 4.56 µM)
- MIC (E. faecalis ATCC29212): 8 µg/mL (≈ 4.56 µM)
- MIC (E. faecalis F43559 (VRE)): 8 µg/mL (≈ 4.56 µM)
- MIC (E. faecalis W61950 (VRE)): 32 µg/mL (≈ 18.2 µM)
- MIC (E. faecium T62764 (VRE)): 1 µg/mL (≈ 0.57 µM)
- MIC (E. faecium mic80 (VRE)): 8 µg/mL (≈ 4.56 µM)
- MIC [2]: 64 µg/mL (≈ 36.5 µM)
- MIC [3]: 32 µg/mL (≈ 18.2 µM)
- MIC (P. aeruginosa 198 (MDR)): 16 µg/mL (≈ 9.12 µM)
- MIC (P. aeruginosa 213 (MDR)): 16 µg/mL (≈ 9.12 µM)
- MIC (P. aeruginosa 9 (MDR)): 256 µg/mL (≈ 146 µM)
- MIC [4]: 4 µg/mL (≈ 2.28 µM)
- MIC [5]: 8 µg/mL (≈ 4.56 µM)
- MIC [6]: 16 µg/mL (≈ 9.12 µM)
- MIC [7]: 8 µg/mL (≈ 4.56 µM)
- MIC (P. maltophilia ATCC13637): 2 µg/mL (≈ 1.14 µM)
- MIC (S. aureus ATCC25923): 4 µg/mL (≈ 2.28 µM)
- MIC (S. aureus C623 (MRSA)): 8 µg/mL (≈ 4.56 µM)

SMILES: C[C@@H](c1ccccc1)N(CC(N)=O)C(=O)CN(CCCCN)C(=O)CN(C(=O)CN(C(=O)CN(CCCCN)C(=O)CN(C(=O)CN(C(=O)CN(CCCCN)C(=O)CN(C(=O)CN(C(=O)CNCCCCN)[C@@H](C)c1ccccc1)[C@@H](C)c1ccccc1)[C@@H](C)c1ccccc1)[C@@H](C)c1ccccc1)[C@@H](C)c1ccccc1)[C@@H](C)c1ccccc1 [Peptoid 1_11mer, H-(NLys-Nspe-Nspe)3-NLys-Nspe-NH2] (H-[Nlys][Nspe][Nspe][Nlys][Nspe][Nspe][Nlys][Nspe][Nspe][Nlys][Nspe]-NH2)
- MIC E. coli (E. coli ATCC 35218): 6.3 µM (≈ 10.4 µg/mL)
- HD10 (hemolytic activity) (erythrocytes): 103
- HD50 (hemolytic activity) (erythrocytes): > 200
- ID50 (inhibitory dose, metabolic activity) (NIH 3T3 cells): 11 µM

- MIC (E. coli 63103 (ESBL)): 256 µg/mL (≈ 116 µM)
- MIC (E. faecalis F43559 (VRE)): 256 µg/mL (≈ 116 µM)
- MIC (E. faecalis W61950 (VRE)): 128 µg/mL (≈ 58.1 µM)
- MIC (E. faecium T62764 (VRE)): 4 µg/mL (≈ 1.81 µM)
- MIC (E. faecium mic80 (VRE)): 32 µg/mL (≈ 14.5 µM)
- MIC [2]: 256 µg/mL (≈ 116 µM)
- MIC (P. aeruginosa 198 (MDR)): 16 µg/mL (≈ 7.26 µM)
SMILES: C[C@H](NCC(=O)N(CCCCN)CC(=O)N(CC(=O)N(CCCCN)CC(=O)N(CCCCN)CC(=O)N(CC(=O)N(CC(=O)N(CCCCN)CC(=O)N(CC(=O)N(CCCCN)CC(=O)N(CCCCN)CC(=O)N(CC(=O)N(CC(=O)N(CCCCN)CC(=O)N(CC(N)=O)[C@@H](C)c1ccccc1)[C@@H](C)c1ccccc1)[C@@H](C)c1ccccc1)[C@@H](C)c1ccccc1)[C@@H](C)c1ccccc1)[C@@H](C)c1ccccc1)[C@@H](C)c1ccccc1)c1ccccc1 [1B15mer-NLys4,10, H-(Nspe-NLys-Nspe-NLys-NLys-Nspe)2-Nspe-NLys-Nspe-NH2] (H-[Nspe][Nlys][Nspe][Nlys][Nlys][Nspe][Nspe][Nlys][Nspe][Nlys][Nlys][Nspe][Nspe][Nlys][Nspe]-NH2)
- HD10 (hemolytic activity) (erythrocytes): >200 / >200
- HD50 (hemolytic activity) (erythrocytes): >200 / >200
- ID50 (inhibitory dose, metabolic activity) (NIH 3T3 cells): 16 µM
